Measurements published in US20240238423A9, “TETRAHYDROISOQUINOLINE HETEROBIFUNCTIONAL BCL-XL DEGRADERS” (Treeline Biosciences, Inc., priority 2022, published 2024).
Like-named read-outs stand apart in the source and are kept apart here.

Target: T1, Human BCL-XL protein (N-terminal HiBiT tagged BCL-XL in HT1080 cells) (Homo sapiens, UniProt Q07817)
T1 construct: expressed in transfected cells; host or cells: HT-1080 (ATCC CCL-121), stably transduced with lentivirus pLV-UBC-N-HiBiT-BCL-XL-PGK-puro and selected with puromycin
T1 sequence (Q07817 whole entry): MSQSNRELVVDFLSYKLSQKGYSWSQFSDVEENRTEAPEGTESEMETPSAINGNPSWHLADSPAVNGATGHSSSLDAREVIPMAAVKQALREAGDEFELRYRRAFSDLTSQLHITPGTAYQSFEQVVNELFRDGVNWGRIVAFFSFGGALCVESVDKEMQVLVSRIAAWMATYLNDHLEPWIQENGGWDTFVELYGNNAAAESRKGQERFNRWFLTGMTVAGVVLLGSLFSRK
Assay: HiBiT based degradation assay
Type: cell-based
Details: HT1080 cells expressing HiBiT-BCL-XL; for Ymin (6 h) / Ymin (24 h): BCL-XL degradation normalized with DMSO control; for DC50: BCL-XL degradation
In short: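 HT1080 cells stably transduced by lentivirus with N-terminally HiBiT-tagged human BCL-XL and kept under 1 μg/mL puromycin selection were seeded at three thousand cells per well in 40 μL RPMI 1640 into 384-well plates pre-spotted with compounds across a concentration range. Luminescence was read on a PHERAstar FSX, normalized to DMSO, and fitted with a four-parameter logistic model.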

In the case of `Cc1c(Oc2ccc(CCC(=O)Nc3ccc4c(C5CCC(=O)NC5=O)nn(C)c4c3)cc2)cccc1-c1ccc(N2CCc3cccc(C(=O)Nc4nc5ccccc5s4)c3C2)nc1C(=O)O` (stereo not shown) [Compound 107, 6-[8-(1,3-benzothiazol-2-ylcarbamoyl)-3,4-dihydro-1H-isoquinolin-2-yl]-3-[3-[4-[3-[[3-(2,6-dioxo-3-piperidyl)-1-methyl-indazol-6-yl]amino]-3-oxo-propyl]phenoxy]-2-methyl-phenyl]pyridine-2-carboxylic acid], the “Ymin (6 h)” value (6 h) is reported as “C (Ymin ≥ 70%)”, the “Ymin (24 h)” value (24 h) is reported as “C (Ymin ≥ 70%)” and the DC50 (6 h, read-out: EC50 (6 h)) is reported as 1000 to 10000 nM. It also gave a DC50 (24 h, read-out: EC50 (24 h)) of 1000 to 10000 nM.

With `Cc1c(O[C@H]2CC[C@H](CCCCN3CCN(c4ccc5c(C6CCC(=O)NC6=O)nn(C)c5c4)CC3(C)C)CC2)cccc1-c1ccc(N2CCc3cccc(C(=O)Nc4nc5ccccc5s4)c3C2)nc1C(=O)O` (stereo partly shown) [Compound 323a, 6-(8-(benzo[d]thiazol-2-ylcarbamoyl)-3,4-dihydroisoquinolin-2(1H)-yl)-3-(3-(((1s,4r)-4-(4-(4-(3-(2,6-dioxopiperidin-3-yl)-1-methyl-1H-indazol-6-yl)-2,2-dimethylpiperazin-1-yl)butyl)cyclohexyl)oxy)-2-methylphenyl)picolinic acid] the “Ymin (24 h)” value (24 h) was “A (Ymin < 50%)” and the DC50 (24 h, read-out: EC50 (24 h)) was under 100 nM.

For `Cc1c(OCCN2CCN(CC3CCN(c4ccc5c(C6CCC(=O)NC6=O)nn(C)c5c4)CC3)CC2)cccc1-c1ccc(N2CCc3cccc(C(=O)Nc4nc5ccccc5s4)c3C2)nc1C(=O)O` (stereo not shown) [Compound 198, 6-(8-(benzo[d]thiazol-2-ylcarbamoyl)-3,4-dihydroisoquinolin-2(1H)-yl)-3-(3-(2-(4-((1-(3-(2,6-dioxopiperidin-3-yl)-1-methyl-1H-indazol-6-yl)piperidin-4-yl)methyl)piperazin-1-yl)ethoxy)-2-methylphenyl)picolinic acid], the “Ymin (24 h)” value (24 h) was “A (Ymin < 50%)” and the DC50 (24 h, read-out: EC50 (24 h)) was under 100 nM.

In the case of `Cc1c(O[C@H]2CC[C@H](CCCCN3CCN(c4ccc5c(C6CCC(=O)NC6=O)nn(C)c5c4)CC3)CC2)cccc1-c1ccc(N2CCc3cccc(C(=O)Nc4nc5ccccc5s4)c3C2)nc1C(=O)O` (stereo partly shown) [Compound 161a, 6-(8-(benzo[d]thiazol-2-ylcarbamoyl)-3,4-dihydroisoquinolin-2(1H)-yl)-3-(3-(((1s,4r)-4-(4-(4-(3-(2,6-dioxopiperidin-3-yl)-1-methyl-1H-indazol-6-yl)piperazin-1-yl)butyl)cyclohexyl)oxy)-2-methylphenyl)picolinic acid], the “Ymin (24 h)” value (24 h) is reported as “A (Ymin < 50%)” and the DC50 (24 h, read-out: EC50 (24 h)) is reported as under 100 nM.

With `Cc1c(OCC[C@H]2CCCN(CC(=O)Nc3ccc4c(C5CCC(=O)NC5=O)nn(C)c4c3)C2)cccc1-c1ccc(N2CCc3cccc(C(=O)Nc4nc5ccccc5s4)c3C2)nc1C(=O)O` (stereo partly drawn) [Compound 180b, 6-(8-(benzo[d]thiazol-2-ylcarbamoyl)-3,4-dihydroisoquinolin-2(1H)-yl)-3-(3-(2-((3R)-1-(2-((3-(2,6-dioxopiperidin-3-yl)-1-methyl-1H-indazol-6-yl)amino)-2-oxoethyl)piperidin-3-yl)ethoxy)-2-methylphenyl)picolinic acid] the “Ymin (24 h)” value (24 h) was “B (50% ≤ Ymin < 70%)” and the DC50 (24 h, read-out: EC50 (24 h)) was under 100 nM.

With `Cc1c(OCCCC2CCN(CC(=O)N3CCN(c4cccc5c(C6CCC(=O)NC6=O)nn(C)c45)CC3)CC2)cccc1-c1ccc(N2CCc3cccc(C(=O)Nc4nc5ccccc5s4)c3C2)nc1C(=O)O` (stereo not shown) [Compound 144, 6-[8-(1,3-benzothiazol-2-ylcarbamoyl)-3,4-dihydro-1H-isoquinolin-2-yl]-3-[3-[3-[1-[2-[4-[3-(2,6-dioxo-3-piperidyl)-1-methyl-indazol-7-yl]piperazin-1-yl]-2-oxo-ethyl]-4-piperidyl]propoxy]-2-methyl-phenyl]pyridine-2-carboxylic acid] the “Ymin (6 h)” value (6 h) was “A (Ymin < 50%)”, the “Ymin (24 h)” value (24 h) was “A (Ymin < 50%)” and the DC50 (6 h, read-out: EC50 (6 h)) was under 100 nM. It also gave a DC50 (24 h, read-out: EC50 (24 h)) of under 100 nM.

With `Cc1c(OCCC[C@H]2CCN(CC(=O)Nc3cccc4c(C5CCC(=O)NC5=O)nn(C)c34)C2)cccc1-c1ccc(N2CCc3cccc(C(=O)Nc4nc5ccccc5s4)c3C2)nc1C(=O)O` (stereo partly drawn) [Compound 240b, 6-(8-(benzo[d]thiazol-2-ylcarbamoyl)-3,4-dihydroisoquinolin-2(1H)-yl)-3-(3-(3-((3S)-1-(2-((3-(2,6-dioxopiperidin-3-yl)-1-methyl-1H-indazol-7-yl)amino)-2-oxoethyl)pyrrolidin-3-yl)propoxy)-2-methylphenyl)picolinic acid] the “Ymin (24 h)” value (24 h) was “B (50% ≤ Ymin < 70%)” and the DC50 (24 h, read-out: EC50 (24 h)) was under 100 nM.

`Cc1cc(CCCCC2CCN(CC(=O)Nc3ccc4c(C5CCC(=O)NC5=O)nn(C)c4c3)CC2)ccc1-c1ccc(N2CCc3cccc(C(=O)Nc4nc5ccccc5s4)c3C2)nc1C(=O)O` (stereo not shown) [Compound 294] was tested, and the “Ymin (24 h)” value (24 h) was “A (Ymin < 50%)” and the DC50 (24 h, read-out: EC50 (24 h)) was under 100 nM.

For `Cc1c(OCCCC[C@H]2CCCN(CC(=O)Nc3cccc4c(C5CCC(=O)NC5=O)nn(C)c34)C2)cccc1-c1ccc(N2CCc3cccc(C(=O)Nc4nc5ccccc5s4)c3C2)nc1C(=O)O` (stereo partly drawn) [Compound 186b, 6-[8-(1,3-benzothiazol-2-ylcarbamoyl)-3,4-dihydro-1H-isoquinolin-2-yl]-3-[3-[4-[(3S)-1-[2-[[3-(2,6-dioxo-3-piperidyl)-1-methyl-indazol-7-yl]amino]-2-oxo-ethyl]-3-piperidyl]butoxy]-2-methyl-phenyl]pyridine-2-carboxylic acid], the “Ymin (24 h)” value (24 h) was “C (Ymin ≥ 70%)” and the DC50 (24 h, read-out: EC50 (24 h)) was 1000 to 10000 nM.

In the case of `Cc1c(OCCC[C@H]2CCN(CC(=O)Nc3ccc4c(C5CCC(=O)NC5=O)nn(C)c4c3)[C@@H](C)C2)cccc1-c1ccc(N2CCc3cccc(C(=O)Nc4nc5ccccc5s4)c3C2)nc1C(=O)O` (stereo partly drawn) [Compound 343d, 6-[8-(1,3-benzothiazol-2-ylcarbamoyl)-3,4-dihydro-1H-isoquinolin-2-yl]-3-[3-[3-[(2S,4S)-1-[2-[[3-(2,6-dioxo-3-piperidyl)-1-methyl-indazol-6-yl]amino]-2-oxo-ethyl]-2-methyl-4-piperidyl]propoxy]-2-methyl-phenyl]pyridine-2-carboxylic acid], the “Ymin (24 h)” value (24 h) is reported as “A (Ymin < 50%)” and the DC50 (24 h, read-out: EC50 (24 h)) is reported as under 100 nM.

For `Cc1c(OCCC[C@@H]2CCCN(CC(=O)Nc3ccc4c(C5CCC(=O)NC5=O)nn(C)c4c3)C2)cccc1-c1ccc(N2CCc3cccc(C(=O)Nc4nc5ccccc5s4)c3C2)nc1C(=O)O` (stereo partly drawn) [Compound 207a, 6-(8-(benzo[d]thiazol-2-ylcarbamoyl)-3,4-dihydroisoquinolin-2(1H)-yl)-3-(3-(3-((3S)-1-(2-((3-(2,6-dioxopiperidin-3-yl)-1-methyl-1H-indazol-6-yl)amino)-2-oxoethyl)piperidin-3-yl)propoxy)-2-methylphenyl) picolinic acid], the “Ymin (24 h)” value (24 h) was “A (Ymin < 50%)” and the DC50 (24 h, read-out: EC50 (24 h)) was under 100 nM.

With `Cc1cc(OCCC[C@@H]2CCN(CC(=O)Nc3ccc4c(C5CCC(=O)NC5=O)nn(C)c4c3)[C@@H](C)C2)ccc1-c1ccc(N2CCc3cccc(C(=O)Nc4nc5ccccc5s4)c3C2)nc1C(=O)O` (stereo partly drawn) [Compound 344d, 6-(8-(benzo[d]thiazol-2-ylcarbamoyl)-3,4-dihydroisoquinolin-2(1H)-yl)-3-(4-(3-((2S,4R)-1-(2-((3-(2,6-dioxopiperidin-3-yl)-1-methyl-1H-indazol-6-yl)amino)-2-oxoethyl)-2-methylpiperidin-4-yl)propoxy)-2-methylphenyl)picolinic acid] the “Ymin (24 h)” value (24 h) was “A (Ymin < 50%)” and the DC50 (24 h, read-out: EC50 (24 h)) was under 100 nM.

With `Cc1c(OCC(F)(F)CC2CCN(CC(=O)Nc3cccc4c(C5CCC(=O)NC5=O)nn(C)c34)CC2)cccc1-c1ccc(N2CCc3cccc(C(=O)Nc4nc5ccccc5s4)c3C2)nc1C(=O)O` (stereo not shown) [Compound 170, 6-[8-(1,3-benzothiazol-2-ylcarbamoyl)-3,4-dihydro-1H-isoquinolin-2-yl]-3-[3-[3-[1-[2-[[3-(2,6-dioxo-3-piperidyl)-1-methyl-indazol-7-yl]amino]-2-oxo-ethyl]-4-piperidyl]-2,2-difluoro-propoxy]-2-methyl-phenyl]pyridine-2-carboxylic acid] the “Ymin (24 h)” value (24 h) was “B (50% ≤ Ymin < 70%)” and the DC50 (24 h, read-out: EC50 (24 h)) was 100 to 1000 nM.

`Cc1c(-c2ccc(N3CCc4cccc(C(=O)Nc5nc6ccccc6s5)c4C3)nc2C(=O)NCCCCCC(=O)Nc2cccc3c(C4CCC(=O)NC4=O)nn(C)c23)cnn1CC12CC3CC(CC(C3)C1)C2` (stereo not shown) [Compound 108, 2-(5-(1-(((3r,5r,7r)-adamantan-1-yl)methyl)-5-methyl-1H-pyrazol-4-yl)-6-((6-((3-(2,6-dioxopiperidin-3-yl)-1-methyl-1H-indazol-7-yl)amino)-6-oxohexyl)carbamoyl)pyridin-2-yl)-N-(benzo[d]thiazol-2-yl)-1,2,3,4-tetrahydroisoquinoline-8-carboxamide] was tested, and the “Ymin (6 h)” value (6 h) was “B (50% ≤ Ymin < 70%)” and the DC50 (6 h, read-out: EC50 (6 h)) was under 100 nM.

In the case of `Cc1c(O[C@H]2CC[C@H](CCCN3CCN(c4ccc5c(C6CCC(=O)NC6=O)nn(C)c5c4)C[C@H]3C)CC2)cccc1-c1ccc(N2CCc3cccc(C(=O)Nc4nc5ccccc5s4)c3C2)nc1C(=O)O` (stereo partly drawn) [Compound 273a, 6-(8-(benzo[d]thiazol-2-ylcarbamoyl)-3,4-dihydroisoquinolin-2(1H)-yl)-3-(3-(((1S,4r)-4-(3-((2R)-4-(3-(2,6-dioxopiperidin-3-yl)-1-methyl-1H-indazol-6-yl)-2-methylpiperazin-1-yl)propyl)cyclohexyl)oxy)-2-methylphenyl)picolinic acid], the “Ymin (24 h)” value (24 h) is reported as “A (Ymin < 50%)” and the DC50 (24 h, read-out: EC50 (24 h)) is reported as under 100 nM.
